Assay: Human HepG2 cell viability assay in 384 well format
Assay type: toxicity, cell-based
Parameters: dose 125 nL, time 70.5 hour; concentration not given beside the values
Conditions: HepG2 cells, read-out: Inhibition

Row | SMILES | cytotoxicity at 70.5 h [%]
1 | Cc1ccc(C(=O)N2CCc3ncnc(C)c3CC2)cn1 | -4.87
2 | Cc1noc([C@@]23CCO[C@@H]2CCN(C(=O)c2ccsc2)C3)n1 | -1.85
3 | O=C(Nc1cc(C2CCOCC2)[nH]n1)c1ccc(Cl)cn1 | -1.48
4 | CC(C)N1CCC(NC(=O)NCc2ccccc2)CC1 | -0.0959
5 | O=C(Nc1ccccc1N1CCOC1=O)N1CCSCC1 | 14.3
6 | CS(=O)(=O)N1Cc2nccn2CC(Cn2ncccc2=O)C1 (stereo not given) | 3.97
7 | Cc1cc2cc(NC(=O)Cn3ncc(N4CCCC4)cc3=O)ccc2o1 | 15.3
8 | Cn1c(CN2CCC(OCc3cccnc3)CC2)cc2ccccc21 | 1.71
9 | CC(O)c1cn(Cc2ccc(Cl)cc2)nn1 (stereo not given) | -6.41
10 | CCc1cn[nH]c1C1CCCN(C(=O)c2cc(C(C)C)on2)C1 (stereo not given) | -2.01
11 | CO[C@H]1C[C@@H](O)C12CCN(CCOc1ccc(Cl)cc1)CC2 | -1.42
12 | CN(C)CCNC(=O)c1cc(-c2cnc(N3CCOCC3)nc2)cn1C | -8.38
13 | CN(c1ncc(C(=O)NCc2ccccc2)c(N)n1)C1CCCCC1 | 18
14 | Cc1nccn1Cc1nnc(C2CCCN(Cc3ccncc3)C2)n1C (stereo not given) | -17.2
15 | Cc1nc(C)n(C2CCCN(C(=O)c3cnc[nH]3)C2)n1 (stereo not given) | -7.11
16 | Cn1cnnc1C1CCCN(C(=O)NCc2ccccn2)C1 (stereo not given) | 15.7
17 | CC(C)c1cnc(CN(C)C2CCN(CCc3ccncc3)C2)o1 (stereo not given) | 18.9
18 | Cc1cncc(NCc2ccccc2N2CCOCC2)c1 | 3.08
19 | COCc1cc(CNCc2c(C)n(CC(C)C)c3ccccc23)n[nH]1 | -11
20 | CS(=O)(=O)CCCSc1cccc(C#N)c1 | -13
21 | Nc1ncccc1CN1C[C@H]2OC(=O)N(Cc3ccccn3)[C@H]2C1 | -3.5
22 | CCC(=O)Nc1cccc(OCC(=O)N(C)CCCC2CCCO2)c1 (stereo not given) | -3.54
23 | CN(Cc1cc(-c2ccncc2)no1)Cc1nccn1C | 10.3

Row | SMILES | cytotoxicity at 70.5 h [%]
24 | Cc1ccc(Nc2nccc(C3CN(C(C)C)C3)n2)nc1 | 42.5
25 | CC(=O)N1CCOCC2(CN(Cc3ccc(C)o3)CCO2)C1 (stereo not given) | 28.8
26 | O=C(NC1CCC1)C1=NOC2(CCN(Cc3ccccc3)C2)C1 (stereo not given) | -10.6
27 | O=C(c1ncc[nH]1)N1CCC(Cn2cc(-c3cccc(Cl)c3)nn2)CC1 | 20.7
28 | COc1cccc(-n2nnc(C(=O)N3CCCCCC3)c2C)c1 | -12.9
29 | O=C(Cc1ccsc1)N1C[C@@H]2COC[C@]2(COCc2cccnc2)C1 | -0.0283
30 | COC(=O)CNC(=O)C1(N(C)Cc2ccccc2)Cc2ccccc2C1 | -8.63
31 | CCOC(=O)[C@]12CCCN(Cc3nccs3)C[C@H]1CN(S(C)(=O)=O)C2 | -6.29
32 | Cc1c(Cl)cccc1OCC(=O)NC1(C#N)CCSC1 (stereo not given) | -10.3
33 | O=C(CCSc1ccc2c(c1)OCCO2)NCC1CCS(=O)(=O)C1 (stereo not given) | -3.43
34 | O=C(c1ncccn1)N1C[C@@H]2CN(CC3CC3)CCO[C@@H]2C1 | -13.4
35 | CC(C)C(C)NC(=O)CN1CCSCC1 (stereo not given) | -2.11
36 | O=C(NC1CCCN(CCCc2ccccc2)C1)C1=CCCCC1 (stereo not given) | -0.678
37 | O=C(Cc1ccccc1)N1CCN(CC(O)c2ccc(F)cc2)CC1 (stereo not given) | -4.03
38 | Cc1nc2c(c(NC(C)c3nnn[nH]3)n1)Cc1ccccc1OC2 (stereo not given) | -6.63
39 | CCc1noc(CN(C)CCC(=O)Nc2ccc(Cl)cc2)n1 | -0.958
40 | CC(=O)NCc1nnn2c1CN(c1ncccn1)CCC2 | -7.48
41 | CC(C)c1nc(-c2cc(C(=O)NCCN(C)C)c3ccccn23)cs1 | -1.61
42 | CC(C)CC(C)N(C)C(=O)c1nc(S(C)(=O)=O)n2ccccc12 (stereo not given) | 2.74
43 | O=C1CN(C(=O)c2ccc(Cl)cc2)CC(O)CN1Cc1cccs1 (stereo not given) | -5.51
44 | CCc1noc(C(C)N2CCN(CCN3CCCC3=O)CC2)n1 (stereo not given) | -2.78
45 | C1CN(CC2CCOCC2)Cc2c(CN3CCOCC3)nnn2C1 | 6.54

From ChEMBL document CHEMBL3507680, “University of Dundee, Gates Library screen for HepG2 cell viability”
